Results taken from PubChem BioAssay (NCI).
Where “and” joins values, the source holds several entries; their conditions need not be identical. Equal values may be shown once.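 Results reflect a 48-hour exposure of cells in 96-well plates to compound at five concentrations. GI50 is the concentration that inhibits growth by half. TGI is the concentration that stops growth completely.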

Assays:
Assay in all cases: NCI anticancer screen, dose series, 48 h
SNB-78 CNS = test system: SNB-78 CNS
SF-268 CNS = test system: SF-268 CNS
SNB-75 CNS = test system: SNB-75 CNS
BT-549 breast = test system: BT-549 breast
LXFL 529 NSCLC = test system: LXFL 529 NSCLC
HCT-15 colon = test system: HCT-15 colon
MDA-MB-435 = test system: MDA-MB-435
TK-10 renal = test system: TK-10 renal
HS 578T breast = test system: HS 578T breast
SK-MEL-5 melanoma = test system: SK-MEL-5 melanoma

SMILES | GI50 (SNB-78 CNS) [µM] | TGI (SNB-78 CNS) [µM] | GI50 (SF-268 CNS) | TGI (SF-268 CNS) | GI50 (SNB-75 CNS) | TGI (SNB-75 CNS) | TGI (BT-549 breast) | GI50 (LXFL 529 NSCLC) [µM] | TGI (LXFL 529 NSCLC) [µM] | GI50 (HCT-15 colon) [µM] | TGI (HCT-15 colon) [µM] | GI50 (MDA-MB-435) [µM] | TGI (MDA-MB-435) [µM] | GI50 (TK-10 renal) [µM] | TGI (TK-10 renal) [µM] | GI50 (HS 578T breast) [µM] | TGI (HS 578T breast) [µM] | GI50 (SK-MEL-5 melanoma) | TGI (SK-MEL-5 melanoma)
[Cl][Cd][Cl] | 21.3 | 56.9 | 16.5 µM and 8.95 µM | 33.9 µM and 24.4 µM | 22.7 µM and 11.2 µM | 45.6 µM and 29.4 µM | 2.07 µM and 17.6 µM | 13.3 | 28.4 | 52.2 | 150 | 8.26 | 30.9 | 90.5 | 192 | 10.1 | 57.4 | 1.18 µM and 3.62 µM and 0.518 µM | 3.31 µM and 22.4 µM and 5.9 µM
O=C(O)C1=C(C(=O)Nc2ccc(NC(=O)C3=C(C(=O)O)C4C=CC3C4)cc2)C2C=CC1C2 |  | > 100 |  | > 100 µM |  | > 100 µM |  |  | > 100 |  | > 100 |  |  |  | > 100 |  |  |  | > 100 µM
O=C1c2nc3n(c2C(=O)c2c1nc1n2CCC1)CCC3 |  | 31.1 |  | 32 µM |  | 28.9 µM |  |  | 21.5 |  | 19.2 |  | 3.48 |  | > 77.2 |  |  | 1.68 µM | 3.05 µM and 2.78 µM
COC(=O)C1=C(c2ccc3c(c2)OCO3)OC(c2cc(OC)c(OC)c(OC)c2)C1 (configuration not stated) |  | > 100 |  | > 100 µM |  | > 100 µM |  |  | > 100 |  | 15.2 |  |  |  | > 100 |  |  |  | 60.3 µM
O=C(O)c1ccccc1NC(=O)C1CCCCC1 |  | > 100 |  | > 100 µM |  | > 100 µM |  |  | > 100 |  | > 100 |  |  |  | > 100 |  |  |  | > 100 µM
COc1ccc2nc(NC(=O)C(=O)C(C#N)c3ccc(Cl)c(Cl)c3)sc2c1 (configuration not stated) |  | > 100 |  | > 100 µM |  | > 100 µM |  |  | > 100 |  | > 100 |  |  |  | > 100 |  |  |  | > 100 µM
O=C1NC(=O)C2C1N(Cc1ccccc1)C(=O)N2Cc1ccccc1 (configuration not stated) |  | > 100 |  | > 100 µM |  | > 100 µM |  |  | > 100 |  | > 100 |  |  |  | > 100 |  |  |  | > 100 µM
CC1=CC(=O)N(c2c(C)cccc2Cl)C(C)N1 (configuration not stated) |  | > 100 |  | > 100 µM |  | > 100 µM |  |  | > 100 |  | > 100 |  |  |  | > 100 |  |  |  | > 100 µM
O=[N+]([O-])c1ccc(Cl)cc1C1SCc2nc3ccccc3n21 (configuration not stated) |  | > 100 |  | > 100 µM |  | 70.7 µM |  |  | > 100 |  | > 100 |  |  |  | > 100 |  |  |  | 84.6 µM
